# Source: patent US9850206B2, “S1P and/or ATX modulating agents” (BIOGEN MA INC., priority 2012, dated 2017)
# Like-named read-outs stand apart in the source and are kept apart here.
# Tests used:
# S1P1 = S1P1 (Homo sapiens, UniProt P21453); assay: S1P receptor activity assay (calcium flux, FLIPR TETRA), S1P1; type: cell-based
# Text: (§1) Agonist percentage activation determinations were obtained by assaying sample compounds and referencing the Emax control for each receptor profiled. Antagonist percentage inhibition determinations were obtained by assaying sample compounds and referencing the control EC80 wells for each receptor profiled. The samples were run using a “Single Addition” assay protocol for the agonist and antagonist assay run. The protocol design was as follows:
# (§2) Master stock solution: Unless specified otherwise, all sample compounds were diluted in 100% anhydrous DMSO including all serial dilutions. All control wells contained identical solvent final concentrations as did the sample compound wells.
# (§3) Compound plate for assay: The sample compounds were transferred from a master stock solution into a daughter plate that was used in the assay. Each sample compound was diluted into assay buffer (1×HBSS with 20 mM HEPES and 2.5 mM Probenecid) at an appropriate concentration to obtain final concentrations.
# (§4) Sample compounds were plated in an eight-point, four-fold dilution series in duplicate with a top concentration of 10 μM. The concentrations described here reflect the final concentration of the compounds during the antagonist assay.
# (§5) Reference agonists were handled as mentioned above serving as assay control. The reference agonists were handled as described above for Emax.
# (§6) Assay was read for 180 seconds using the […] (This assay run added sample compounds and reference agonist to respective wells). At the completion of the first “Single Addition” assay run, assay plate was removed from the […] and placed at 25° C. for seven (7) minutes.
# (§7) Using the EC80 values determined during the agonist assay, stimulated all pre-incubated sample compound and reference antagonist (if applicable) wells with EC80 of reference agonist. Read for 180 seconds using the […] (This assay added reference agonist to respective wells—then fluorescence measurements were collected to calculate percentage inhibition values).
# (§8) All plates were subjected to appropriate baseline corrections. Once baseline corrections were processed, maximum fluorescence values were exported and data manipulated to calculate percentage activation, percentage inhibition and Z′.
# S1P4 = target: T1, S1P4 (Homo sapiens, UniProt O95977); assay: S1P receptor activity assay (calcium flux, FLIPR TETRA), S1P4; type: cell-based
# T1 sequence (O95977 1-384): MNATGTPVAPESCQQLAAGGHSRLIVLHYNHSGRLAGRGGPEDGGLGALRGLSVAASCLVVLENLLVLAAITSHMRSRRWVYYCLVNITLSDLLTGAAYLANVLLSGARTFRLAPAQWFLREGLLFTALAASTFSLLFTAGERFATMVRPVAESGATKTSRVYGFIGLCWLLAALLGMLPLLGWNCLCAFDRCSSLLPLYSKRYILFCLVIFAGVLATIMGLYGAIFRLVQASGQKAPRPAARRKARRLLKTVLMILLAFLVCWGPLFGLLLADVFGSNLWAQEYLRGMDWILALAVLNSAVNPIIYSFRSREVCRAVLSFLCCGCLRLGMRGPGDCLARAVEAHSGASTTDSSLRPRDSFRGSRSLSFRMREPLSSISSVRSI
# Text: as §1, §2, §3, §4, §5, §6, §7, §8
# S1P5 = S1P5 (Homo sapiens, UniProt Q9H228); assay: S1P receptor activity assay (calcium flux, FLIPR TETRA), S1P5; type: cell-based; details: calcium flux, top concentration 10 μM; read-out: IC50 for S1P5
# Sequence of S1P5 (Q9H228 whole entry): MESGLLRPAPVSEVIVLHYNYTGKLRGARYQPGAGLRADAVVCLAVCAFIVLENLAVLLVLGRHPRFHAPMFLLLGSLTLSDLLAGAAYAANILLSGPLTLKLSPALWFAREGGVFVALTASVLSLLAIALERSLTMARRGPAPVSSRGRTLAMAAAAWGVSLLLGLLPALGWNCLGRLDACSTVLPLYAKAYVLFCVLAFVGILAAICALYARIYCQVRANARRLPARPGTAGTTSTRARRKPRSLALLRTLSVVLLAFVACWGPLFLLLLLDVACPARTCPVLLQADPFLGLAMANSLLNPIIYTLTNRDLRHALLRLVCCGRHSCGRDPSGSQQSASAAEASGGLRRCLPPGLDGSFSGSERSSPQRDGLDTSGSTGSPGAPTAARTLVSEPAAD
# Text: as §1, §2, §3, §4, §5, §6, §7, §8
# Human ATX protein = target: T2, Human ATX protein (Homo sapiens, UniProt Q13822); assay: Autotaxin (ATX) FRET assay with FS-3 substrate; type: biochemical; details: FS-3 2 μM, ATX 1.0 μg/mL, 2 hours at room temperature; read-out: IC50 (ATX)
# T2 construct: made in house
# Text: ATX (Autotaxin) is a 125 KDa glycoprotein with lysophospholipase D (LPLD) activity that generates the bioactive lipid lysophosphatidic acid (LPA) from lysophosphatidylcholine (LPC). The ATX biochemical assay utilizes a FRET (fluorescence resonance energy transfer) technology platform. […] ATX catalyzes the hydrolysis of the substrate which separates the dabsyl quencher from the fluorescein reporter, which becomes fluorescent. The reaction is monitored by a SpectraMax M5 (Molecular Devices, Sunnyvale, Calif.) with at excitation wavelength 485 nm and emission wavelength 535 nm.
# Fatty acid free-BSA (Sigma A8806): 10 mg/mL in H2O, stored at 4° C.
# 2×ATX assay buffer: 100 mM Tris, 280 mM NaCl, 10 mM KCl, 2 mM CaCl2, 2 mM MgCl2, pH 7.4.
# Human ATX protein: expressed and purified in house. Stored at −80° C.
# Substrate FS-3 (Echelon, L-2000): 100 μg in 77.74 μL H2O (1 mM stock), stored at −20° C.
# Compound dilution—All compounds were provided at 10 mM in 100% DMSO. In the first well, 2 μL of 10 mM compound was added to 78 μL of DMSO (1:40 dilution). In subsequent wells 3-fold dilution (total 10 dilutions) were performed.
# 1×ATX assay buffer was made up with a final concentration of 1 mg/mL fatty acid free-BSA using 2×ATX assay buffer, 10 mg/ml fatty acid free-BSA and ddH2O.
# 38 μL was added per well to the assay plate. The final concentration of ATX in the reaction as 1.0 μg/mL.
# 2 μL per well of compounds was transferred to provide the desired concentration. The plate was centrifuged, then incubated at room temperature for 30 minutes on the shaker.
# FS-3 was diluted with 1×ATX assay buffer to a concentration of FS-3 of 10 μM (5×). Then, 10 μL was added per well to the assay plate. The final concentration of FS-3 in the reaction was 2 μM. The plate was centrifuged. The plate was kept shaking at room temperature for 2 hours. Because FS-3 substrate is light sensitive, plates were kept covered and protected from light.
# [1] = calcium flux, top concentration 10 μM, the >5 μM sentence says only 'for S1P1', read-out: IC50 for S1P1 agonist activity
# [2] = calcium flux, top concentration 10 μM, the >5 μM sentence says only 'for S1P4', read-out: IC50 for S1P4 agonist activity
# Sequence of S1P1 (P21453 whole entry): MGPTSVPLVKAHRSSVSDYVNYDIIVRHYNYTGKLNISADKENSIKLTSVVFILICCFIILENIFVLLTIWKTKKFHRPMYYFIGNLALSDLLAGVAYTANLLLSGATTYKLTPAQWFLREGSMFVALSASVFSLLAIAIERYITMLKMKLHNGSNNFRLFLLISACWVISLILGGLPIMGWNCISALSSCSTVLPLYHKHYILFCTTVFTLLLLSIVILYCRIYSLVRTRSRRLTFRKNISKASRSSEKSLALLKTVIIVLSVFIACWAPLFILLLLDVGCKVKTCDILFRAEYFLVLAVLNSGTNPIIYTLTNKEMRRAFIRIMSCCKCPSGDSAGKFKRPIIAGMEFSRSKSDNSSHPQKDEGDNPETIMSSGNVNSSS
SMILES,IC50 (S1P1; [1]) [µM],IC50 (S1P4; [2]) [µM],IC50 (S1P5) [µM],IC50 (Human ATX protein) [µM],IC50 (S1P1) [µM],IC50 (S1P4) [µM]
"CCCCCCCCOc1ccc(C2CCCN(CCC(=O)O)C2)cc1 (stereo not drawn) [Example 1, 3-(3-(4-(Octyloxy)phenyl)piperidin-1-yl)propanoic acid]",> 5,> 5,> 5,–,–,–
"CC(C)(C)[C@H]1CC[C@H](Oc2ccc(C3CCN(CCCCC(=O)O)CC3)cc2)CC1 [Example 50, 5-(4-(4-((trans-4-(tert-Butyl)cyclohexyl)oxy)phenyl)piperidin-1-yl)pentanoic acid]",> 5,≤ 5,> 5,–,–,–
"CC(C)(C)[C@H]1CC[C@H](Oc2ccc(C3CCCN(CCC(=O)O)C3)cc2)CC1 (stereo partly drawn) [Example 3, 3-(3-(4-(trans-4-tert-Butylcyclohexyloxy)phenyl)piperidin-1-yl)propanoic acid]",–,–,–,5 to 10,–,–
"CC(C)(C)[C@H]1CC[C@H](Oc2ccc(C3CCN(CCCC(=O)O)C3)cc2)CC1 (stereo partly drawn) [Example 24, 4-(3-(4-((trans-4-(tert-Butyl)cyclohexyl)oxy)phenyl)pyrrolidin-1-yl)butanoic acid]",> 5,≤ 2,> 5,–,–,–
"CC(C)(C)[C@H]1CC[C@H](Oc2ccc(C3CCCN(C4CCC(C(=O)O)CC4)C3)cc2)CC1 (stereo partly drawn) [Example 25, 4-(3-(4-((trans-4-(tert-Butyl)cyclohexyl)oxy)phenyl)piperidin-1-yl)cyclohexanecarboxylic acid]",> 5,≤ 2,–,–,–,–
"CC(C)(C)[C@H]1CC[C@H](Oc2ccc(NC3CCCN(CCC(=O)O)C3)cc2)CC1 (relative stereo) [Example 13, 3-(3-((4-((trans-4-(tert-Butyl)cyclohexyl)oxy)phenyl)amino)piperidin-1-yl)propanoic acid]",> 5,2 to 5,–,> 10,–,–
"CCCCCCCCOc1ccc(N2CCN(CCC(=O)O)CC2)nc1 [Example 22, 3-(4-(5-(Octyloxy)pyridin-2-yl)piperazin-1-yl)propanoic acid]",> 5,> 5,> 5,–,–,–
"CCCCCCCCOc1ccc(C2CCCN(CCCC(=O)O)C2)cc1 (stereo not drawn) [Example 2, 4-(3-(4-(Octyloxy)phenyl)piperidin-1-yl)butanoic acid]",> 5,≤ 2,> 5,–,–,–
"CC(C)(C)[C@H]1CC[C@H](Oc2ccc(C3=CCN(CCCCC(=O)O)CC3)cc2)CC1 [Example 49, 5-(4-(4-((trans-4-(tert-Butyl)cyclohexyl)oxy)phenyl)-5,6-dihydropyridin-1(2H)-yl)pentanoic acid]",–,–,> 5,–,> 5,≤ 2
"CC(C)(C)[C@H]1CC[C@H](Oc2cccc(C3CCCN(CCCC(=O)O)C3)c2)CC1 (stereo partly drawn) [Example 8, 4-(3-(3-((trans-4-(tert-Butyl)cyclohexyl)oxy)phenyl)piperidin-1-yl)butanoic acid]",–,≤ 2,> 5,5 to 10,–,–
"CC(C)(C)[C@H]1CC[C@H](Oc2ccc(NC3CCCN(CCC(=O)O)C3)nc2)CC1 (relative stereo) [Example 12, 3-(3-(5-(trans-4-tert-butylcyclohexyloxy)pyridin-2-ylamino)piperidin-1-yl)propanoic acid]",> 5,≤ 2,–,> 10,–,–
"CCCCCCCCOc1ccc(NC2CCCN(CCC(=O)O)C2)nc1 (stereo not drawn) [Example 11, 3-(3-(5-(Octyloxy)pyridin-2-ylamino)piperidin-1-yl)propanoic acid]",> 5,> 5,–,5 to 10,–,–
"CC(C)(C)[C@H]1CC[C@H](Oc2cccc(C3CCCN(CCC(=O)O)C3)c2)CC1 (stereo partly drawn) [Example 7, 3-(3-(3-((trans-4-(tert-Butyl)cyclohexyl)oxy)phenyl)piperidin-1-yl)propanoic acid]",–,≤ 2,> 5,5 to 10,–,–
"CC(C)(C)[C@H]1CC[C@H](Oc2ccc(C3CCN(CCC(=O)O)C3)cc2)CC1 (stereo partly drawn) [Example 23, 3-(3-(4-((trans-4-(tert-Butyl)cyclohexyl)oxy)phenyl)pyrrolidin-1-yl)propanoic acid]",> 5,≤ 2,> 5,–,–,–
